Assay results: US10420810B2, “Traditional Chinese medicine composition for the treatment of diabetic retinopathy” (priority 2015, dated 2019)

What was measured:
Type in all cases: in vivo, rat
[1] = tested on: retinal capillaries; experiment: Microscopic observation of retinal vascular digest preparation, STZ diabetic rats (Experiment 3); details: 9 months, PAS staining, result in words
Experimental: (§1) 48 SPF-grade SD rats, male, 6 weeks old, (220±20) g in weight, were purchased from Huafukang Biotechnology Co., Ltd. After one-week's adaptive feeding, the rats were randomized into the modeling group (36 rats) and normal group (12 rats). The rats were fasted for 12 hours before modeling and given 1% STZ solution according to the body weight of 60 mg/kg via one intraperitoneal injection to induce experiment diabetic rat models. Rats in the normal group were injected with normal saline of the same volume. Blood glucose was monitored 72 hours later, blood was collected via caudal vein, and the modeling was deemed as successful when the blood glucose was ≥16.7 mmol/L for 3 consecutive days; after successful modeling, rats were randomized into the model group (12 rats), TCM composition experiment group (abbreviated as the experiment group, containing 12 rats) and Doxium group (abbreviated as the control group, containing 12 rats). Rats in the experiment group and control group were dosed on the next day after successful modeling. The administered dose of the experiment group was 10 ml/(kg·d) and that of the control group was 250 mg/(kg·d), with the Doxium powders dissolved in 2 mL distilled water. […] In the experiment period, all the rats were given food and drinking water at regular times each day; the changes in the body weight and blood glucose of rats were monitored monthly. […]

[2] = tested on: retina; experiment: HE staining of retinal paraffin sections, STZ diabetic rats (Experiment 3); details: 9 months, result in words
Experimental: as §1

[3] = tested on: VEGF; experiment: Immunohistochemistry of retinal paraffin sections: whole-layer retinal VEGF expression (Experiment 3); details: STZ diabetic rats, 9 months, x ± s
Experimental: as §1

[4] = tested on: retina; experiment: Retinal electron microscopy, STZ diabetic rats (Experiment 3); details: 9 months, result in words
Experimental: as §1

[5] = tested on: iris vessels of diabetic rats; experiment: Iris blood flow velocity in STZ diabetic rats; details: x ± s
From the text: (§2) The modeling was the same as that of Experiment 2. After successful modeling, diabetic rats were randomized into the model group (20 rats), experiment group (30 rats, given the TCM composition prepared according to Experiment 1), control group (Doxium group, 20 rats) and normal group (12 rats). The experiment lasted 300 days. 1.2 Observation Methods and Outcome Measures: The iris blood flow velocity, diameter of iris vessels, density of iris microvessels, endothelial structure of iris microvessels, permeability of iris microvessels and iris unit area blood perfusion volume were observed by the iris vascular perfusion scan and iris fluorescein angiography.

[6] = tested on: iris vessels of diabetic rats; experiment: Diameter of iris vessels in STZ diabetic rats; details: 300 days, result in words
From the text: as §2

[7] = tested on: iris vessels of diabetic rats; experiment: Iris unit area blood perfusion volume (laser Doppler scanning) in STZ diabetic rats; details: x ± s
From the text: as §2

O=S(=O)(O)c1cc(O)ccc1O [Doxium]
Microscopic observation of retinal vascular digest preparation [1]: retinal microvascular changes were significantly prevented or delayed | Light microscopic observation of HE-stained retinal paraffin sections [2]: the retinal net structure was loose, internal and external granular layers were arranged in a disordered manner, capillaries were dilated, and interstitial edema can be noted | Whole-layer Retinal VEGF Expression (Gray-scale values), Mean Optical Density Value [3]: 0.43 ± 0.09 | Retinal ultrastructure observation (electron microscopy) [4]: the vascular walls of retinal capillaries were still regular and smooth, basement membranes were thickened | Blood Flow Velocity Index, Post-treatment ([5]; 300 days): 3.25 ± 0.81 min | Blood Flow Velocity Index, Pre-treatment ([5]; baseline): 1.07 ± 0.07 min | Diameter of iris vessels compared to the model group [6]: no statistically significant difference between the Doxium group and model group | Iris Unit Area Blood Perfusion Volume, Post-treatment ([7]; 300 days): 133.71 ± 6.89 | Iris Unit Area Blood Perfusion Volume, Pre-treatment ([7]; baseline): 607.45 ± 194.19
